Measurements as given in paper PMC8259865, “Design and green synthesis of novel quinolinone derivatives of potential anti-breast cancer activity against MCF-7 cell line targeting multi-receptor tyrosine kinases” (Journal of Enzyme Inhibition and Medicinal Chemistry, 2021).
“Also recorded” adds a separate entry of the source. Values belong to the compound of their own block, whether it stands above or below them.

Assays:
[1] = test system: human breast cancer MCF-7 cell line; assay: MTT cytotoxicity assay against MCF-7 breast cancer cells; assay type: cell-based; details: for IC50: Homo sapiens, MCF7, MTT assay, MCF-7 cells, average of at least three independent experiments, read-out: Anticancer activity against MCF-7 cells IC50 mean ± SD
Description: MTT assay was used to evaluate the in vitro cytotoxicity of the new compounds against breast cancer cell lines MCF-7[38]. More details are present in the Supplementary file.
S1: In vitro cytotoxicity experiment
MTT assay was used to evaluate the in vitro cytotoxicity of the new compounds against breast cancer cell lines MCF-7 [39]. MTT assay depends on the reduction of the soluble 3-(4,5-methyl-2-thiazolyl)-2,5-diphenyl-2H-tetrazolium bromide (MTT) into a blue purple formazan product, mainly by mitochondrial reductase activity inside the living cells. The cells used in cytotoxicity […]
at 37 °C in a 5% CO 2 incubator. After 12 h, the test sampl e (2 μL) was added to the cells (2 × 10 4) in 96-well plates and cultured at 37 ◦C for 3 days. The cultured cells were mixed with 20 μL of MTT solution and incubated for 4 h at 37 °C. The supernatant was carefully removed from each well and 100 μL of DMSO we re added to each well to dissolve the formazan crystals which were formed by the cellular reduction of MTT. […]

normal WI38 cells = assay: MTT assay against normal WI38 cells (safety profile); assay type: cell-based, human; details: for IC50: Homo sapiens, WI-38, MTT assay, normal WI38 cells derived from lung tissues, read-out: IC50 against the normal WI38 cells mean ± SD; for IC50 against WI38 cells, fold higher than IC50 of staurosporine: relative to staurosporine; for IC50 against WI38 cells, fold higher than IC50 against cancer (MCF-7) cells: WI38 vs MCF-7
Description: One of the characteristics differentiating different anticancer agents from each other is the recurrence and severity of their side effects to the normal cells at their therapeutic doses. […].

MCF-7 cells [2] = assay: Annexin-V/PI apoptosis assay by flow cytometry; assay type: cell-based, human; details: compound at its IC50 concentration, 24 h
Method: (§1) Cell cycle analysis and apoptosis investigation were carried out by flow cytometry.[39]^,[40] […] After treatment with the tested compound, for 24 h, cell pellets were collected and centrifuged (300 g, 5 min).
Flow cytometry method[39]^,[49] has been used to detect the corresponding red (PI) and green (FITC) fluorescence. It has been noted that there was an increment in the percentages of the late apoptosis produced by the evaluated compounds 4b and 4j from 0.13% (control DMSO/MCF-7 cells) to 13.81% and 22.03%, respectively. Also, the tested compounds produced early apoptotic effects of 6.15% and 3.27% compared to 0.58% of the untreated MCF-7 cell with necrosis percent of 4.37% and 9.22%, respectively, vs. 0.66% produced by the DMSO control (Figures 4 and 5).

MCF-7 cells [3] = assay: Cell cycle analysis by flow cytometry; assay type: cell-based, human; details: for %G0–G1 / %G2/M / %Pre-G1 / %S: compound at its IC50 concentration, 24 h
Method: as §1
The induction of apoptosis is one of the most crucial tools that confirm the effectiveness of cancer therapy. Cell cycle checkpoints are G1 (restriction or start), S ([…]), and G2/M. One of the main functions of the anticancer therapeutics is stoppage of the cell division at these checkpoints.[51] […] The cells were stained with Annexin V/PI and examined using flow cytometry procedure.

PDGFR-α = assay: In vitro kinase inhibition assay, PDGFR-α; details: for IC50: read-out: PDGFR-α IC50
Description: (§2) The procedure of the used kits was done according to the manufacturer, s instructions.
(§3) Which are: EGFR, human epidermal growth factor receptor (HER2), PDGFR-α, and VEGFR-2.

HER-2 = HER-2 (Homo sapiens, UniProt P04626); assay: In vitro kinase inhibition assay, HER-2 (ADP-Glo Kinase Assay)
Chain of HER-2 (P04626 23-1255): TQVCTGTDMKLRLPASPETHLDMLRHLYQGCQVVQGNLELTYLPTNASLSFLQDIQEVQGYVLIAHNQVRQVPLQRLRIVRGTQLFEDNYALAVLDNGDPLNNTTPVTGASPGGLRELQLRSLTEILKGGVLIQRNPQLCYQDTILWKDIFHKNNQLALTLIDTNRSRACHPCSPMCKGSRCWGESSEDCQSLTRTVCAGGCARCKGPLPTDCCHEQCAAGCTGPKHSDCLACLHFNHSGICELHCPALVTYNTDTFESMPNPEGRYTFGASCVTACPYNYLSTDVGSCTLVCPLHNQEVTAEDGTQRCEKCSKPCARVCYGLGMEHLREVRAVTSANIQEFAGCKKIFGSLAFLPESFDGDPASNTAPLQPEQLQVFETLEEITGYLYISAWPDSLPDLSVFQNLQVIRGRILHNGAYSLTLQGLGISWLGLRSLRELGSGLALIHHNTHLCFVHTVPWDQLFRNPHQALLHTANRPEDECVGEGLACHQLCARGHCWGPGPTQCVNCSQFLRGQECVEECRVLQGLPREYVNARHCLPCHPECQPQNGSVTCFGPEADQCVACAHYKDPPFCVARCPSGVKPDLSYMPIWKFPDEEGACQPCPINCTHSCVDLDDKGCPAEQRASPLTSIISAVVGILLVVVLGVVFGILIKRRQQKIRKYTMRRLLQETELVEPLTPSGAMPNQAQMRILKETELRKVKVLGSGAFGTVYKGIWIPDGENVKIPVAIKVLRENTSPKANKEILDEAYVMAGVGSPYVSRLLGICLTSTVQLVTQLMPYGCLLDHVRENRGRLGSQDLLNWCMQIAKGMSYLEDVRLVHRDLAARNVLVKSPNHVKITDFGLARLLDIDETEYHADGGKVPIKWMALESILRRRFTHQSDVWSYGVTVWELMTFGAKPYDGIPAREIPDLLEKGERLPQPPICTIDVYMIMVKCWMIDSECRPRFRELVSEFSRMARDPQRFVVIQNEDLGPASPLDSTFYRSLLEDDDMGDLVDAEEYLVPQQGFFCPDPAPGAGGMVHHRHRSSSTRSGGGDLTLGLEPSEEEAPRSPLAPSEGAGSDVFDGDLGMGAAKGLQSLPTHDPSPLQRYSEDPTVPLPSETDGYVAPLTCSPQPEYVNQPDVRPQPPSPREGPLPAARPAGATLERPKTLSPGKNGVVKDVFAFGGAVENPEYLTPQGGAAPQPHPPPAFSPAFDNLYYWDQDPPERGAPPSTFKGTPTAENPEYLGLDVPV
Description: as §2, §3

VEGFR-2 = VEGFR-2 (Homo sapiens, UniProt P35968); assay: In vitro kinase inhibition assay, VEGFR-2 (KDR Kinase Assay Kit)
Chain of VEGFR-2 (P35968 20-1356): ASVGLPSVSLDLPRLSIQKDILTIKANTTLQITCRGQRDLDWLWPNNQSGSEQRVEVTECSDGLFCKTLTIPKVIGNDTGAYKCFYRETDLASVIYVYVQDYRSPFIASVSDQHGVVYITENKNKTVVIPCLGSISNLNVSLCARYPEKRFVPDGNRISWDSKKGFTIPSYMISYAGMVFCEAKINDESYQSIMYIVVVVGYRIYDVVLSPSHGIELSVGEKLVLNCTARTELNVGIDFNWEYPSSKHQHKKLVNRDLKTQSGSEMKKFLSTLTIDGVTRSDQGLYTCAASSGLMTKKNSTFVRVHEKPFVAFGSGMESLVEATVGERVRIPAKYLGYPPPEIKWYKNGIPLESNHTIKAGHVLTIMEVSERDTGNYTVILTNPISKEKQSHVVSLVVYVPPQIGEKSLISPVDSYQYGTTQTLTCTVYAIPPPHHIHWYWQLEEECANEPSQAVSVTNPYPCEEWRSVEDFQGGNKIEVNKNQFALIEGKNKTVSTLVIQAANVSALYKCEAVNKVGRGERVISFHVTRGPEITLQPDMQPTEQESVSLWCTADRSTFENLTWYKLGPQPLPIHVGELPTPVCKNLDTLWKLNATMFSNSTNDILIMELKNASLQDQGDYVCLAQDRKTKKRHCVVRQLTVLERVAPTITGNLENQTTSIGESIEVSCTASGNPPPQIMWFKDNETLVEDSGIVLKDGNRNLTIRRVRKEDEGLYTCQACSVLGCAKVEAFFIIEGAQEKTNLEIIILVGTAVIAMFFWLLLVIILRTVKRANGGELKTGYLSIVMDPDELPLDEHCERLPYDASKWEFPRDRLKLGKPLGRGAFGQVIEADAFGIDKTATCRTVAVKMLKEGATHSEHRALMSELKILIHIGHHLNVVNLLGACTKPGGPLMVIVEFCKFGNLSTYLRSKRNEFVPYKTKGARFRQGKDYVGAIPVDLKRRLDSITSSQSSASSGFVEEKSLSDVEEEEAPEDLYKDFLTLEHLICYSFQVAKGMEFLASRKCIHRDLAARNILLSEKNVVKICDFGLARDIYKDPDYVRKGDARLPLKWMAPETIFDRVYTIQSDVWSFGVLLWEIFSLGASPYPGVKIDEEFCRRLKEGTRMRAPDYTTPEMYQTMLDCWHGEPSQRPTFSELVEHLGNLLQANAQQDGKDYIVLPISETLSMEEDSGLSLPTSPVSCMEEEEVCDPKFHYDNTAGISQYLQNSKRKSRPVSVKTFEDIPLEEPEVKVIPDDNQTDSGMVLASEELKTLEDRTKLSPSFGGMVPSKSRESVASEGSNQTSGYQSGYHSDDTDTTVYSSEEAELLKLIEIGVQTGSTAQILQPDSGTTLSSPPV
Description: as §2, §3

EGFR = EGFR (Homo sapiens, UniProt P00533); assay: In vitro kinase inhibition assay, EGFR (Abcam Human In cell ELISA Kit)
Chain of EGFR (P00533 25-1210): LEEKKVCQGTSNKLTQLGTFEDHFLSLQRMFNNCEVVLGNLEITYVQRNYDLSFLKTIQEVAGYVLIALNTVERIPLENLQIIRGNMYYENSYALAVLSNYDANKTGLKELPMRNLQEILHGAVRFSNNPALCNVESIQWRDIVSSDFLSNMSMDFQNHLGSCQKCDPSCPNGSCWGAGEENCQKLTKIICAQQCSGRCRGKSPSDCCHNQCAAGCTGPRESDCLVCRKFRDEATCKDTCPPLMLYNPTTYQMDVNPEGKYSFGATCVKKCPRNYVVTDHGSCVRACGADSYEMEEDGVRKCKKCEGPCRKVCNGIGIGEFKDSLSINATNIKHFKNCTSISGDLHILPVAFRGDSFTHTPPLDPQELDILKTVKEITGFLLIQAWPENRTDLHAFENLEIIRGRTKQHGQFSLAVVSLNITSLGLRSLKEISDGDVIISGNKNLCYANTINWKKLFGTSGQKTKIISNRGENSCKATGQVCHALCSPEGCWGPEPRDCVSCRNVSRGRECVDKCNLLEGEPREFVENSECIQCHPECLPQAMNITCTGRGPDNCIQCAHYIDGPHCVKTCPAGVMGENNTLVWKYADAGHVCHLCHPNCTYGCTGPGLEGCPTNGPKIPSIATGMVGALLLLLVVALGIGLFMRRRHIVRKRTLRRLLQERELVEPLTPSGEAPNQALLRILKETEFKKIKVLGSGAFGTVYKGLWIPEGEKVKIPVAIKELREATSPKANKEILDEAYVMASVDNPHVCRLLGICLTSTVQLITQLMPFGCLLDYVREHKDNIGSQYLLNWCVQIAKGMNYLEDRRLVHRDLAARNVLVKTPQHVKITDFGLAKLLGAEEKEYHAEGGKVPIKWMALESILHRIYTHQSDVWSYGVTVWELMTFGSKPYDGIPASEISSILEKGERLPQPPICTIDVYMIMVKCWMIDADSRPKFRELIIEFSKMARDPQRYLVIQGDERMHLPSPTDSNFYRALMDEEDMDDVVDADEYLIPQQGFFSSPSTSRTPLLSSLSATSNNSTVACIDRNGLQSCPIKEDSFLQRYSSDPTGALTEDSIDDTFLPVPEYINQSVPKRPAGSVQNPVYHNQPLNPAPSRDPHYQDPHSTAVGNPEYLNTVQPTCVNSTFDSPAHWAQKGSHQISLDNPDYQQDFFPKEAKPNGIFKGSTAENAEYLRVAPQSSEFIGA
Description: as §2, §3

- IC50 (PDGFR-α): 0.21 ± 0.04 nM
- IC50 (HER-2): 0.3 ± 0.05 nM
- IC50 (VEGFR-2): 1.05 ± 0.02 nM
- VEGFR-2 inhibitory effect, fold less than Sorafenib (VEGFR-2): about 6.2 fold
- IC50 (EGFR): 0.11 ± 0.03 nM
SMILES: CCOC(=O)C1=C(C(F)(F)F)NC2=C(C(=O)CC(C)(C)C2)C1c1ccc(S(=O)(=O)c2ccccc2)cc1 (stereo not drawn) [Compound 4b, Ethyl 7,7-dimethyl-5-oxo-4–(4-(phenylsulfonyl)phenyl)-2-(trifluoromethyl)-1,4,5,6,7,8-hexahydroquinoline-3-carboxylate]
- IC50 [1]: 2 ± 1 nM
- fold more potent than staurosporine against MCF-7 ([1]; ratio of IC50 values, MCF-7): about 2.5 fold
- IC50 (normal WI38 cells): 45 ± 13 nM
- IC50 against WI38 cells, fold higher than IC50 of staurosporine (normal WI38 cells): about 3 fold
- IC50 against WI38 cells, fold higher than IC50 against cancer (MCF-7) cells (normal WI38 cells): 24 fold
- early apoptotic effect (MCF-7 cells [2]): 6.15%
- late apoptosis percentage (MCF-7 cells [2]): 13.81%
- necrosis percent (MCF-7 cells [2]): 4.37%
- %G0–G1 (MCF-7 cells [3]): 45.26%
- %G2/M (MCF-7 cells [3]): 18.03%
- %Pre-G1 (MCF-7 cells [3]): 24.33%
- %S (MCF-7 cells [3]): 36.71%

SMILES: COC(=O)C1=C(C)NC2=C(C(=O)CC(C)(C)C2)C1c1ccc(S(=O)(=O)c2ccc(C)cc2)cc1 (stereo not drawn) [Compound 4g, Methyl 2,7,7-trimethyl-5-oxo-4–(4-tosylphenyl)-1,4,5,6,7,8-hexahydroquinoline-3-carboxylate]
- IC50 [1]: 27 ± 3 nM

SMILES: Cc1ccc(S(=O)(=O)c2ccc(C3C(C(=O)c4ccc(Br)cc4)=C(N)NC4=C3C(=O)CC(C)(C)C4)cc2)cc1 (stereo not drawn) [Compound 4l, 2-Amino-3–(4-bromobenzoyl)-7,7-dimethyl-4–(4-tosylphenyl)-4,6,7,8-tetrahydroquinolin-5(1H)-one]
- IC50 [1]: 7 ± 1 nM
- fold less potent than staurosporine against MCF-7 ([1]; ratio of IC50 values, MCF-7): 1.4 fold

SMILES: CCOC(=O)C1=C(C(F)(F)F)NC2=C(C(=O)CC(C)(C)C2)C1c1ccc(S(=O)(=O)c2ccc(C)cc2)cc1 (stereo not drawn) [Compound 4h, Ethyl 7,7-dimethyl-5-oxo-4–(4-tosylphenyl)-2-(trifluoromethyl)-1,4,5,6,7,8-hexahydroquinoline-3-carboxylate]
- IC50 [1]: 41 ± 6 nM

SMILES: Cc1ccc(C(=O)C2=C(N)NC3=C(C(=O)CC(C)(C)C3)C2c2ccc(S(=O)(=O)c3ccccc3)cc2)cc1 (stereo not drawn) [Compound 4e, 2-Amino-7,7-dimethyl-3–(4-methylbenzoyl)-4–(4-(phenylsulfonyl)phenyl)-4,6,7,8-tetrahydroquinolin-5(1H)-one]
- IC50 [1]: 4 ± 2 nM
- IC50 (normal WI38 cells): 14.9 ± 3 nM
- IC50 against WI38 cells, fold higher than IC50 of staurosporine (normal WI38 cells): approximately equal
- IC50 against WI38 cells, fold higher than IC50 against cancer (MCF-7) cells (normal WI38 cells): 4 fold

SMILES: CN[C@@H]1C[C@H]2O[C@@](C)([C@@H]1OC)n1c3ccccc3c3c4c(c5c6ccccc6n2c5c31)C(=O)NC4 [Staurosporine, reference compound]
- IC50 (normal WI38 cells): 13 ± 2 nM

SMILES: COC(=O)C1=C(C)NC2=C(C(=O)CC(C)(C)C2)C1c1ccc(S(=O)(=O)c2ccccc2)cc1 (stereo not drawn) [Compound 4a, Methyl 2,7,7-trimethyl-5-oxo-4–(4-(phenylsulfonyl)phenyl)-1,4,5,6,7,8-hexahydroquinoline-3-carboxylate]
- IC50 [1]: 103 ± 13 nM

SMILES: CC1(C)CC(=O)C2=C(C1)NC(N)=C(C(=O)c1ccccc1)C2c1ccc(S(=O)(=O)c2ccccc2)cc1 (stereo not drawn) [Compound 4d, 2-Amino-3-benzoyl-7,7-dimethyl-4–(4-(phenylsulfonyl)phenyl)-4,6,7,8-tetrahydroquinolin-5(1H)-one]
- IC50 [1]: 7 ± 1 nM
- fold less potent than staurosporine against MCF-7 ([1]; ratio of IC50 values, MCF-7): 1.4 fold

SMILES: Cc1ccc(C(=O)C2=C(N)NC3=C(C(=O)CC(C)(C)C3)C2c2ccc(S(=O)(=O)c3ccc(C)cc3)cc2)cc1 (stereo not drawn) [Compound 4k, 2-Amino-7,7-dimethyl-3–(4-methylbenzoyl)-4–(4-tosylphenyl)-4,6,7,8-tetrahydroquinolin-5(1H)-one]
- IC50 [1]: 4 ± 1 nM
- IC50 (normal WI38 cells): 17.6 ± 9 nM
- IC50 against WI38 cells, fold higher than IC50 of staurosporine (normal WI38 cells): approximately equal
- IC50 against WI38 cells, fold higher than IC50 against cancer (MCF-7) cells (normal WI38 cells): 4 fold

- PDGFR-α inhibition, fold more than sorafenib (PDGFR-α): 1.9 fold
- IC50 (PDGFR-α): 0.07 ± 0.01 nM
- HER-2 inhibition, folds more potent than Sorafenib (HER-2): about 1.6 fold
- IC50 (HER-2): 0.17 ± 0.02 nM
- IC50 (VEGFR-2): 0.3 ± 0.06 nM
- VEGFR-2 inhibitory effect, fold less than Sorafenib (VEGFR-2): ~1.8 fold
- IC50 (EGFR): 0.07 ± 0.02 nM
SMILES: Cc1ccc(S(=O)(=O)c2ccc(C3C(C(=O)c4ccccc4)=C(N)NC4=C3C(=O)CC(C)(C)C4)cc2)cc1 (stereo not drawn) [Compound 4j, 2-Amino-3-benzoyl-7,7-dimethyl-4–(4-tosylphenyl)-4,6,7,8-tetrahydroquinolin-5(1H)-one]
- IC50 [1]: 3 ± 5 nM
- IC50 (normal WI38 cells): 48 ± 8 nM
- IC50 against WI38 cells, fold higher than IC50 of staurosporine (normal WI38 cells): about 3 fold
- early apoptotic effect (MCF-7 cells [2]): 3.27%
- late apoptosis percentage (MCF-7 cells [2]): 22.03%
- necrosis percent (MCF-7 cells [2]): 9.22%
- cell cycle effect in MCF-7 cells (MCF-7 cells [3]): cell cycle disruption at G2/M phase; also recorded: cell cycle arrest at G2/M phase
- %G0–G1 (MCF-7 cells [3]): 36.99%
- %G2/M (MCF-7 cells [3]): 31.17%
- %Pre-G1 (MCF-7 cells [3]): 34.52%
- %S (MCF-7 cells [3]): 31.84%

SMILES: CCOC(=O)C1=C(N)NC2=C(C(=O)CC(C)(C)C2)C1c1ccc(S(=O)(=O)c2ccccc2)cc1 (stereo not drawn) [Compound 4c, Ethyl 2-amino-7,7-dimethyl-5-oxo-4–(4-(phenylsulfonyl)phenyl)-1,4,5,6,7,8-hexahydroquinoline-3-carboxylate]
- IC50 [1]: 15 ± 2 nM

SMILES: CCOC(=O)C1=C(N)NC2=C(C(=O)CC(C)(C)C2)C1c1ccc(S(=O)(=O)c2ccc(C)cc2)cc1 (stereo not drawn) [Compound 4i, Ethyl 2-amino-7,7-dimethyl-5-oxo-4–(4-tosylphenyl)-1,4,5,6,7,8-hexahydroquinoline-3-carboxylate]
- IC50 [1]: 23 ± 3 nM

SMILES: CC1(C)CC(=O)C2=C(C1)NC(N)=C(C(=O)c1ccc(Br)cc1)C2c1ccc(S(=O)(=O)c2ccccc2)cc1 (stereo not drawn) [Compound 4f, 2-Amino-3–(4-bromobenzoyl)-7,7-dimethyl-4–(4-(phenylsulfonyl)phenyl)-4,6,7,8-tetrahydroquinolin-5(1H)-one]
- IC50 [1]: 27 ± 14 nM
